According to patent US9738690B2, “Polyoma virus JC peptides and proteins in vaccination and diagnostic applications” (UNIVERSITAET ZUERICH, priority 2011, dated 2017):
“Also recorded” adds a separate entry of the source. Read-outs that look alike come from different tables or passages of the source.

Experiments:
JCV [1] = assay: Individual healing attempt: therapeutic vaccination of PML patients with VP1, imiquimod and IL-7; assay type: in vivo, human; conditions: patient with idiopathic CD4+ lymphopenia and PML, s.c. VP1 + dermal imiquimod + IL-7
Description: An individual healing attempt was performed in a patient with idiopathic CD4+ lymphopenia, a rare constitutive immunodeficiency, who developed PML (referred to as “patient Hamburg” in FIG. 11). The patient had been healthy, i.e. not experienced unusual or frequent infections, throughout their life, and in February 2010 was hospitalized with signs of an encephalitis of unknown origin. They were thoroughly worked up, and a diagnosis of suspected EBV-related encephalitis was made. Following transient improvement during antiviral therapy, they deteriorated further albeit slowly. […] In parallel, the inventors found a low CD4+ T cell count (around 300/microliter) as well as a CD4+/CD8+ ratio of 0.5 or less, which are both consistent with the diagnosis of idiopathic CD4+ lymphopenia. In addition, in vitro experiments in the laboratory documented an absent T cell response to JCV virus VP1 in peripheral blood mononuclear cells and an almost complete absence of naïve CD4+ T cells. Following these observations, the inventors reasoned that the patient probably had developed PML based on a pre-existing and probably genetically determined low CD4+ number, which became further accentuated by entirely physiological immune involution, which sets in and increases above 50 years of age.
The vaccination approach in the above patient included the following steps (for timing of vaccinations and tests see scheme below): Subcutaneous injection with the entire recombinant major capsid protein VP1 (provided by the Life Science Inkubator, Bonn) in combination with a dermally applied TLR7 agonist (imiqimod, Aldara; commercially available) and i.v. recombinant IL-7 (Cytheris). The VP1 protein was administered in the form of virus-like particles (VLP), as the recombinantly expressed VP1 protein associated to such particles under the conditions used herein.
Another individual healing attempt was performed in a patient with breast cancer who received chemotherapy and developed acute myeloid leukaemia (AML) as a side effect of the chemotherapy. The patient then received an autologous and allogeneic hematopoietic stem cell transplant as treatment of the AML and subsequently developed acute graft-versus-host disease (grade IV). […] This case is referred to as “patient Zurich” in FIG. 11. Both patients were treated by recombinant IL-7 (s.c.). 2 days later, the first dose of VP1 (s.c. 1 mg, imiquimod cream on the skin) was administered. 2 days after the first dose of VP1, the second dose of rIL-7 was given.
On day 12 after the first IL-7 dose, the patients received a second vaccination with VP1 s.c. plus imiquimod, and in this case simultaneously rIL-7. At week 6, a third dose of VP1/imiquimod and a fourth dose of rIL-7 were administered. […] A stimulation index of >2 is considered a positive response.

[2] = test system: peripheral blood-derived PHA-expanded cells; assay type: cell-based, human
[3] = test system: brain-derived PHA-expanded cells; assay type: cell-based, human
[4] = test system: peripheral blood mononuclear cells (PBMC); assay: 3H-thymidine incorporation assay of patient PBMC with VP1; assay type: cell-based, human
VP1-specific T-cells = assay: Flow cytometry characterization of VP1-specific T cells of the vaccinated patient; assay type: cell-based, human
[5] = test system: CSF-derived PHA-expanded cells; assay type: cell-based, human
JCV [6] = conditions: cited from earlier work
[7] = test system: brain-derived VP1/VLP-specific T cell clones; assay: Fine specificity of brain-derived VP1/VLP-specific T cell clones (TCC); assay type: cell-based, human; conditions: for recognition by brain-derived VP1-specific TCC: each TCC tested against 64 15-mer peptides spanning VP1
Description: 2.5×10^4 brain-derived PHA-expanded cells were seeded in 96-well U-botton microtiter plates with 1×10^5 autologous irradiated PBMC with or without VP1/VLP protein. After 48 hours of culture, plates were split into mother and daughter plates. Proliferation was measured in daughter plates by methyl-^3H-thymidine incorporation. VP1/VLP-responsive cultures were identified in mother plates, and IL-2 was added every 3-4 days until day 12. T cell clones (TCC) were established from positive cultures by seeding cells from VP1/VLP-responsive wells under limiting dilution conditions at 0.3 and 1 cell/well in 96-well U-botton microtiter plates, and addition of 2×10^5 allogeneic, irradiated PBMC and 1 μg/ml of PHA-L in complete RPMI. After 24 h, 20 U/ml of human recombinant IL-2 were added. VP1/VLP specificity was then confirmed seeding 2.5×10^4 cells from growing colonies with autologous irradiated PBMC with or without VP1/VLP protein for 72 h. Specific cultures were restimulated every two weeks with 1 μg/ml PHA-L, 20 U/ml hrIL-2 and allogeneic irradiated PBMC, and hrIL2 was added every 3-4 days.
Prior data had shown that CD4+ differentiate into certain T helper phenotypes such as Th1 cells (IFN-gamma producers), Th17 cells secreting IL-17, Th2 cells expressing the signature cytokine IL-4, or T regulatory cells based on the expression of certain transcription factors (Zhu et al., 2010). The differentiation into Th1 or Th2 cells is considered mutually exclusive and controlled by the transcription factors T-bet (Th1) and Gata-3 (Th2) (Zhu et al., 2010). […] VP1/VLP-specific TCC were generated as described in material and methods. Initially 21 VP1/VLP-specific single cell-derived cultures were generated by limiting dilution and characterized for TCRV beta expression, functional phenotype and fine specificity (Table 2). This characterization allowed the identification of 11 presumed different TCC. The number of single cell growing cultures corresponding to each TCC gives an idea about the frequency of each TCC in the brain infiltrate (FIG. 3a). TCC-4 was most abundant and represented by 5 colonies emerging from single growing wells, followed by TCC-2 with 3 single cell growing cultures, TCC-1, -8, -9 and -10 with 2 single cell growing cultures and finally TCC-3, -5, -6, -7 and -11 with only 1 single cell growing culture. […] Taking into account both the number of different TCC recognizing a specific peptide and the frequency of each TCC in the brain infiltrate the immunodominant peptides recognized by VP1 specific brain infiltrating TCC were VP134, VP174, VP1319 and VP1335 confirming the fine specificity obtained using the brain-derived bulk cell population (FIG. 3c). […] For three of the immunodominant peptides (VP134, VP1319 and VP1335) we found TCC with both phenotypes. The T helper phenotype of Th1-2 and Th1 TCC was confirmed my measuring IL-4 and IFN-gamma protein secretion by ELISA and by determining the expression of mRNAs of the transcription factors Gata3 and T-bet. Th1-2 TCC (n=5) secreted IL-4 in addition to IFN-gamma, while IL-4 secretion was barely detectable in Th1 TCC (n=6) (FIG. 6c). Cytokine secretion profiles were not due to stimulation with PHA, since the same stable patterns were observed after specific stimulation with VP1/VLP protein by intracellular cytokine staining or ELISA measurements from culture supernatants. Transcription factor expression confirmed the phenotype of the TCC. […]

[8] = test system: brain-derived PHA-expanded cells; assay: Determination of precursor frequency by limiting dilution; assay type: cell-based, human; conditions: fraction of T cells responding
Description: Frequencies of VP1/VLP-specific cells were determined by limiting dilution. 20, 200, 2.000 or 20.000 brain-derived PHA-expanded cells were seeded in quadruplicates in 96-well U-botton microtiter plates with 1×10^5 autologous irradiated PBMC with or without VP1/VLP protein. After 72 hours, proliferation was measured by methyl-^3H-thymidine incorporation. Frequencies were calculated as previously described (Taswell, 1981). Observed data were: r, the number of negatively responding cultures or wells of each dose i; n, the total number of wells per dose i, and X, the number of cells in the dose i. Calculated data was: pi=ri/ni, the fraction of negatively responding cultures of each dose i. The frequency was calculated using the following formula: f=−(ln pi)/λi.

unmanipulated PBMC = assay type: cell-based, human
[9] = recombinant IL-7 together with antiviral drugs, case of CD4+ lymphopenia; cited from earlier work

## VP1/VLP: recombinant JCV major capsid protein VP1 forming virus-like particles; VP1 and VLP used interchangeably
JCV [1]
  CSF cell counts after vaccination: slightly elevated CSF cell counts
  JCV viral load after vaccination: 0
JCV [1]; listed as VP1
  brain MRI imaging after vaccination: slight contrast enhancement around the PML lesions
  clinical course after vaccination: clinical improvement with slight delay; also recorded: clinically improving
[2]; PHA-expanded PBMC, VP1/VLP 2 μg/ml, TTx 5 μg/ml, 72 hours
  stimulation index (SI): negative
[3]; brain-derived PHA-expanded T cells, VP1/VLP 2 μg/ml, TTx 5 μg/ml, 72 hours
  stimulation index (SI): > 600
[4]; patient Hamburg and patient Zurich, PBMC 1×10e5 cells/well with VP1/VLP, 7 days, VP1 s.c. 1 mg + imiquimod + rIL-7
  immune response against JCV after vaccination (stimulation index, >2 positive): positive immune response against JCV
[4]; patient with idiopathic CD4+ lymphopenia and PML, before vaccination
  T cell response to JCV VP1 in PBMC before vaccination: absent
[4]; patient with idiopathic CD4+ lymphopenia and PML, s.c. VP1 + dermal imiquimod + IL-7
  in vitro proliferative response against JCV VP1 after vaccination: in vitro proliferative response against JCV VP1 after only two vaccinations
VP1-specific T-cells; 6 weeks after immunization
  cell type proliferating after VP1 stimulus: Only CD4+ cells proliferate
VP1-specific T-cells; antigen day 0, restimulated day 6, intracellular cytokine staining, FACS
  cytokine expression of CD4+ T cells after VP1 stimulation: produce IFN-gamma after VP1 stimulation
[5]; CSF-derived PHA-expanded cells, VP1/VLP 2 μg/ml, TTx 5 μg/ml, 72 hours
  stimulation index (SI): 7
JCV [6]; with FCA
  immune response after vaccination with Freund's Complete Adjuvant (FCA): induces an immune response
JCV [6]; without adjuvant
  immune response after vaccination without adjuvant: not immunogenic

## 23: 15-mer VP1 peptide starting at amino acid 54; likely SEQ ID NO 3 (image row of Table 1) [Peptide 23]
[7]
  recognition by brain-derived VP1-specific TCC: recognized by TCC-3

## VP1143: 15-mer VP1 peptide starting at amino acid 143; likely peptide 43, SEQ ID NO 23 (HFFSVGGEALELQGV; JC virus)
[7]
  recognition by brain-derived VP1-specific TCC: recognized by TCC-6

## 4: 15-mer JCV Agno peptide starting at amino acid 25; likely SEQ ID NO 1 (image row of Table 1) (AQRILIFLLEFLLDF; JC virus) [Peptide 4]
[8]
  precursor frequency of peptide-specific T cells: 1/14492

## 20: 15-mer VP1 peptide starting at amino acid 34; likely SEQ ID NO 2 (image row of Table 1) (VDSITEVECFLTPEM; JC virus) [Peptide 20]
[3]; brain-derived PHA-expanded cells, individual peptides at 10 μM, 72 hours, listed as VP134
  stimulation index (SI), individual JCV peptides: strongest response
[7]; by number of TCC recognizing the peptide and frequency of each TCC
  immunodominance among VP1 specific brain infiltrating TCC: immunodominant
[7]
  recognition by brain-derived VP1-specific TCC: recognized by TCC-1 and -2

## Tetanus toxoid [TTx, reference compound]
[2]
  stimulation index (SI): 6.5
[3]
  stimulation index (SI): no response
[5]
  stimulation index (SI): 14
Unmanipulated PBMC
  proliferative response: significantly stronger response

## VP191: 15-mer VP1 peptide starting at amino acid 91; likely peptide 31, SEQ ID NO 11 (LNEDLTCGNILMWEA; JC virus)
[7]
  recognition by brain-derived VP1-specific TCC: recognized by TCC-5

B1: recombinant IL-7: recombinant IL-7 (Cytheris) (protein, UniProt P13232 26-177, looked up)
Interleukin-7: DCDIEGKDGKQYESVLMVSIDQLLDSMKEIGSNCLNNEFNFFKRHICDANKEGMFLFRAARKLRQFLKMNSTGDFDLHLLKVSEGTTILLNCTGQVKGRKPAALGEAQPTKSLEENKSLKEQKKLNDLCFLKRLLQEIKTCWNKILMGTKEH
[9]
  clinical outcome: substantial improvement
